The subject of experiment [1] is Vero. Description: In vitro cytotoxicity against VERO cells. It is filed as functional, Chlorocebus sabaeus.
In experiment [2] the test system is Mycobacterium tuberculosis. Description: Antimycobacterial activity against Mycobacterium tuberculosis CIP 103471. In kind it is functional.
Experiment [3] relates to Mycobacterium gordonae. Description: Antimycobacterial activity against Mycobacterium gordonae CIP 6427. In kind it is functional.
Experiment [4] relates to Mycobacterium avium. Description: Antimycobacterial activity against Mycobacterium avium CIP 103317. It is filed as functional.
For experiment [5], the system named is Mycolicibacterium smegmatis. Description: Antibacterial activity against Mycobacterium smegmatis CIP 103599. It is filed as functional.
Experiment [6] relates to Mycobacterium marinum. Description: Antimycobacterial activity against Mycobacterium marinum CIP 6423. It is filed as functional.
In experiment [7] the test system is Mycobacterium gordonae. Description: Compound was tested for anti-mycobacterial activity against Mycobacterium gordonae CIP 6427. It is filed as functional.
Experiment [8] has as its system Mycobacterium tuberculosis. Description: Compound was tested for anti-mycobacterial activity against Mycobacterium tuberculosis CIP 103471. It is filed as functional.
Experiment [9] concerns Mycobacterium avium. Description: Compound was tested for anti-mycobacterial activity against Mycobacterium avium CIP 103317. In kind it is functional.
In experiment [10] the test system is Vero. Description: Compound was tested for cytotoxicity against VERO cells. It is filed as functional, Chlorocebus sabaeus.
In experiment [11] the test system is Mycobacterium marinum. Description: Compound was tested for anti-mycobacterial activity against Mycobacterium marinum CIP 6423. In kind it is functional.

29 compounds from ChEMBL document CHEMBL1130637, “Pyrrolnitrin and related pyrroles endowed with antibacterial activities against Mycobacterium tuberculosis” (1998) can be followed below.

Each structure is given as a SMILES string. Values after ≈ are worked out from the molar mass of the structure shown.

Broadly, the MIC is the lowest concentration that inhibits growth of the organism. Lower therefore signals inhibition by little substance.

For the compound `O=[N+]([O-])c1c[nH]cc1-c1ccc(Cl)cc1Cl`, the MTD50 in experiment [1] amounted to 1 µg/mL. Also, the minimum inhibitory concentration (MIC) in experiment [2] is 1 µg/mL (≈ 3.89 µM); in experiment [3], above 16 µg/mL; in experiment [4] it was 16 µg/mL (≈ 62.2 µM); in [5], above 16 µg/mL; in experiment [6] it was above 16 µg/mL.

Regarding `CCOC(=O)c1cn(C)cc1-c1ccc(Cl)cc1`, the MIC in experiment [2], in experiment [3], in experiment [4], in experiment [5] and in [6] was above 16 µg/mL throughout.

Take `Cn1cc(-c2ccc(Cl)cc2Cl)c([N+](=O)[O-])c1`: the MIC in experiment [2], in experiment [3], in [4], in experiment [5] and in [6] was above 16 µg/mL in each case.

`NC(=O)c1c[nH]cc1-c1ccc(Cl)cc1Cl`: the MTD50 in experiment [1] is 0.125 µg/mL. Besides, the MIC in [2] is above 16 µg/mL; in experiment [3], above 16 µg/mL; in [4] it was 16 µg/mL (≈ 62.7 µM); in [5] it was above 16 µg/mL; in experiment [6], above 16 µg/mL.

As to `CCOC(=O)c1cn(Cc2ccc(F)cc2)cc1-c1ccccc1`, the MTD50 in experiment [1] came to 4 µg/mL. In addition, the MIC in experiment [2] was above 16 µg/mL; in [3], above 16 µg/mL; in experiment [4] it was 16 µg/mL (≈ 49.5 µM); in experiment [5], above 16 µg/mL; in experiment [6], above 16 µg/mL.

For `O=[N+]([O-])c1c[nH]cc1-c1ccc(Cl)c(Cl)c1`, the MTD50 in experiment [1] was found to be 2 µg/mL. In addition, the MIC in [2] was 8 µg/mL (≈ 31.1 µM); in [3], above 16 µg/mL; in [4] it was 16 µg/mL (≈ 62.2 µM); in experiment [5] it was above 16 µg/mL; in [6] it was above 16 µg/mL.

In the case of `O=[N+]([O-])c1c[nH]cc1-c1ccccc1Cl`, the MIC in [2], in [3], in [4], in [5] and in experiment [6] was above 16 µg/mL throughout.

For `O=[N+]([O-])c1c[nH]cc1-c1ccc(Cl)cc1`, the MIC in [2], in [3], in experiment [4], in experiment [5] and in experiment [6] was above 16 µg/mL each time.

For the compound `O=[N+]([O-])c1c(Cl)cccc1-c1c[nH]cc1Cl` [PYRROLNITRIN], the MTD50 in experiment [1] stood at 8 µg/mL. Also, the MIC in experiment [7] was above 16 µg/mL; in experiment [8], 4 µg/mL (≈ 15.6 µM); in experiment [9], 8 µg/mL (≈ 31.1 µM); in [5], 16 µg/mL (≈ 62.2 µM); in experiment [6], above 16 µg/mL.

In the case of `Cn1cc(-c2ccc(Cl)cc2)c([N+](=O)[O-])c1`, the minimum inhibitory concentration (MIC) in experiment [2], in experiment [3], in [4], in [5] and in [6] was above 16 µg/mL each time.

For the compound `NC(=O)c1c[nH]cc1-c1ccc(Cl)cc1`, in experiment [1], the MTD50 came to 16 µg/mL. Besides, the MIC in experiment [2], in experiment [3], in experiment [4], in experiment [5] and in experiment [6] was above 16 µg/mL in each case.

`CCOC(=O)c1c[nH]cc1-c1ccc(Cl)cc1Cl` registered an MTD50 in experiment [1] of 2 µg/mL. Further, the MIC in [2], in experiment [3], in [4], in [5] and in experiment [6] was above 16 µg/mL in each case.

`CCOC(=O)c1cn(Cc2ccccc2)cc1-c1ccc(OC)cc1`: the MTD50 in [1] stood at 8 µg/mL. The MIC in [2] is 8 µg/mL (≈ 23.9 µM); in [3], above 16 µg/mL; in experiment [4] it was above 16 µg/mL; in [5], above 16 µg/mL; in experiment [6], above 16 µg/mL.

Regarding `OCc1cn(Cc2ccccc2Cl)cc1-c1ccc(Cl)cc1`, the MTD50 in experiment [1] turned out to be 15 µg/mL. In addition, the MIC in experiment [2] is 8 µg/mL (≈ 24.1 µM); in experiment [3], above 16 µg/mL; in experiment [4], above 16 µg/mL; in experiment [5], above 16 µg/mL; in [6] it was above 16 µg/mL.

`CCOC(=O)c1cn(Cc2ccc(F)cc2)cc1-c1ccc(OC)cc1` came in with an MTD50 in experiment [1] of 2 µg/mL. Besides, the MIC was 16 µg/mL (≈ 45.3 µM) in [2]; above 16 µg/mL in experiment [3]; above 16 µg/mL in [4]; above 16 µg/mL in experiment [5]; above 16 µg/mL in [6].

For the compound `O=C(O)c1cn(Cc2ccc(Cl)cc2)cc1-c1ccc(Cl)cc1`, the MTD50 in experiment [1] is 8 µg/mL. The MIC is 16 µg/mL (≈ 46.2 µM) in [2]; above 16 µg/mL in [3]; 16 µg/mL (≈ 46.2 µM) in [4]; above 1 µg/mL in experiment [5]; above 16 µg/mL in experiment [6].

Consider `NNC(=O)c1ccncc1` [ISONIAZID], for which the MTD50 in experiment [1] is 32 µg/mL. In addition, the MIC in experiment [2] worked out at 0.25 µg/mL (≈ 1.82 µM); in experiment [3] it was 32 µg/mL (≈ 233 µM); in experiment [4], 32 µg/mL (≈ 233 µM); in experiment [5], 64 µg/mL (≈ 467 µM); in experiment [6], 16 µg/mL (≈ 117 µM).

On to `CCOC(=O)c1cn(C)cc1-c1ccc(OC)cc1`, for which the MIC in [3], in [8], in [4], in experiment [5] and in experiment [6] was above 16 µg/mL throughout. Further, the MTD50 in experiment [10] was determined as 4 µg/mL.

For `Cn1cc(-c2ccccc2Cl)c([N+](=O)[O-])c1`, the MIC in [2], in experiment [3], in [4], in experiment [5] and in experiment [6] was above 16 µg/mL throughout.

In experiment [1], `COc1ccc(-c2cn(C)cc2[N+](=O)[O-])c(Cl)c1` showed an MTD50 of 2 µg/mL. The MIC in [2], in experiment [3], in experiment [4], in experiment [5] and in experiment [6] was above 16 µg/mL throughout.

Regarding `O=[N+]([O-])c1c[nH]cc1-c1cccc(Cl)c1`, the MIC in [2], in [3], in [4], in experiment [5] and in experiment [6] was above 16 µg/mL throughout.

With `CCOC(=O)c1c[nH]cc1-c1ccc(Cl)cc1`, the MTD50 in experiment [1] was found to be 4 µg/mL. For the same compound, the MIC in [2] is 16 µg/mL (≈ 64.1 µM); in experiment [3], above 16 µg/mL; in experiment [4], 4 µg/mL (≈ 16 µM); in [5], above 16 µg/mL; in [6], above 16 µg/mL.

Take `NNC(=O)c1c[nH]cc1-c1ccc(Cl)cc1`: the MTD50 in experiment [1] worked out at 16 µg/mL. Also, the MIC in experiment [2], in experiment [3], in experiment [4], in [5] and in experiment [6] was above 16 µg/mL in each case.

Turning to `Cn1cc(C(=O)O)c(-c2ccc(Cl)cc2)c1`, the MIC was above 16 µg/mL in [2]; above 16 µg/mL in experiment [3]; 16 µg/mL (≈ 67.9 µM) in experiment [4]; above 16 µg/mL in experiment [5]; above 16 µg/mL in experiment [6].

In the case of `O=[N+]([O-])c1c[nH]cc1-c1c(Cl)cccc1Cl`, the MIC in [2], in experiment [3], in experiment [4], in experiment [5] and in experiment [6] was above 16 µg/mL each time.

Compound `CN[C@@H]1[C@H](O[C@H]2[C@H](O[C@H]3[C@H](O)[C@@H](O)[C@H](N=C(N)N)[C@@H](O)[C@@H]3N=C(N)N)O[C@@H](C)[C@]2(O)C=O)O[C@@H](CO)[C@H](O)[C@H]1O` [STREPTOMYCIN] had an MTD50 in experiment [1] of 128 µg/mL. Further, the MIC in experiment [2] turned out to be 0.5 µg/mL (≈ 0.86 µM); in [3], 16 µg/mL (≈ 27.5 µM); in experiment [4], 8 µg/mL (≈ 13.8 µM); in [5], 8 µg/mL (≈ 13.8 µM); in experiment [6], 32 µg/mL (≈ 55 µM).

In experiment [1], `O=[N+]([O-])c1c[nH]cc1-c1cc(Cl)cc(Cl)c1` returned an MTD50 of 1 µg/mL. In addition, the MIC is 8 µg/mL (≈ 31.1 µM) in [2]; above 16 µg/mL in [3]; 16 µg/mL (≈ 62.2 µM) in experiment [4]; above 16 µg/mL in [5]; above 16 µg/mL in [6].

`COc1ccc(-c2c[nH]cc2[N+](=O)[O-])c(Cl)c1` had an MTD50 in [1] of 2 µg/mL. Further, the MIC is above 16 µg/mL in [2]; above 16 µg/mL in experiment [3]; 16 µg/mL (≈ 63.3 µM) in [4]; above 16 µg/mL in [5]; above 16 µg/mL in experiment [6].

Turning to `O=[N+]([O-])c1c[nH]cc1-c1cccc(Cl)c1Cl`, the MTD50 in experiment [1] was found to be 1 µg/mL. For the same compound, the MIC was 16 µg/mL (≈ 62.2 µM) in experiment [2]; above 16 µg/mL in experiment [3]; above 16 µg/mL in experiment [4]; above 16 µg/mL in experiment [5]; above 16 µg/mL in [11].
